Measured values from patent publication US20250066323A1, “INHIBITORS OF HUMAN RESPIRATORY SYNCYTIAL VIRUS AND METAPNEUMOVIRUS” (priority 2023, published 2025).
Read-outs that look alike come from different tables or passages of the source.

How the values were obtained:
[1] = tested on: RSV-A2-GFP; assay: RSV-A2-GFP viral replication assay; format: cell-based, Human Respiratory Syncytial Virus
From the text: GFP sequence was derived from pJTI™ R4 Dest CMV N-EmGFP pA Vector (Invitrogen) and was cloned into the intergenic sequence between wild-type RSV-A2 P and M genes using standard recombineering techniques. Recombinant RSV-A2-GFP was propagated in Hep2 cells (human cells contains HeLa marker chromosomes and were derived via HeLa contamination, ATCC CCL-23) with infection Multiplicity of Infection (MOI) of 0.1. Virus was harvested 3 days after infection by collecting all culture material and freeze-thaw the viral culture in liquid nitrogen for at least 5 times. To generating virus working stocks, thaw frozen samples in 37° C. water bath then centrifuge at 218 g for 15 min at 4° C. Add 1/10 of 10×SPG (Biological Industries 06-3061-01-5A), mix, aliquot supernatant, and quick-freeze in liquid nitrogen then transfer to −80° C. freezer for storage. Virus titer was determined by automated plaque assay in HEp-2 cells following methods described previously (Wen Z. et al.; J Virol Methods. 2019 January; 263:88-95).
Calu-1 cells (human lung epidermoid carcinoma, ATCC HTB-54) assay ready freezedown (ARF generation described separately) were used in assays. Compound plates were prepared by dispensing compounds dissolved in DMSO into wells of 384 well coming 3985 polystyrene flat clear bottom optical imaging microplates (202.5 nL/well) using an ECHO acoustic dispenser. Each compound was tested in a 10-point serial 3-fold dilution (typical final concentrations: 403 nM-0.02 nM and 40.3 nM-0.002 nM). […] To set up the assay, thaw ARF vial(s) in 37° C. water bath until small ice crystal remain and resuspend into assay media (DMEM containing 2% FBS, 100 U/ml Penicillin-Streptomycin). Count cells using default parameters on ViCell and dilute to 20,000 cells per ml in assay media. Add RSV GFP to cells at 24,000 pfu/ml (MOI=1.2). Mix by gentle inversion. 10 μl/well of 100% DMSO was dispensed to CellTiter-Glo (CTG) assay Max_E controls wells. Dispense cells at 50 μl/well using Bravo and 50 μl filtered tips into compound plates. Cover plates with MicroClime lids loaded with 7.5 ml of assay media to minimize evaporation. Incubate at 37 degrees C. and 5% CO2 for 96 hrs. Following incubation, distinct, GFP-expressing cells are counted using an Acumen imaging system with appropriate settings. A same-well CTG assay is performed by adding 10 μl/well reconstituted CellTiter-Glo reagent (Promega G7573) and reading plates on PerkinElmer Envision according to manufacturer's instructions. Raw data were loaded and analyzed in ActivityBase. Antiviral IC50 and cytotoxicity CC50 values were determined using a 4 parameter logistic fit based on the Levenberg-Marquardt algorithm. Model: 205-4 Parameter Logistic.
Calu-1 cells were purchased from ATCC (Cat #HTB-54) and are expanded in growth media (DMEM containing 10% FBS, 100 U/ml Penicillin-Streptomycin). To make ARF, remove and discard cell culture media, briefly rinse the cell layer with PBS to remove all traces of serum. Add 2.5 ml of TrypLE Express solution and incubate until cells dislodge, then add growth media and resuspend the cells by gentle pipetting. Count cells for concentration and determine viability using a ViCell. Centrifuge at RT, 300 g for 5 min to pellet cells. Gently aspirate supernatant, flick pellet to loosen cells. Resuspend cells in an appropriate volume of freezing medium (DMEM containing 10% DMSO, 10% FBS, 100 U/ml Penicillin-Streptomycin) to achieve 5×10^6/ml. Transfer 1 ml of cell suspension to freezing vials. Put vials to CoolCell cryopreservation container and place CoolCell container upright in a −80° C. freezer overnight before transferring vials to liquid nitrogen vapor for storage.

[2] = tested on: hMPV-GFP; assay: hMPV-GFP viral replication assay; format: cell-based, human metapneumovirus; conditions: read-out: hMPV EC50
Experimental: GFP expressing rgHMPV #3 p3 was generated in Dr. Buchholz's lab (Biacchesi S. et al., J Virol. 2007 June; 81(11): 6057-6067.) and propagated in VERO cells (kidney tissue derived from a normal, adult African green monkey. ATCC Cat #CCL-81) with infection Multiplicity of Infection (MOI) of 0.1. Virus was harvested 4 days after infection by collecting all culture material and freeze-thaw the viral culture in liquid nitrogen twice. To generating virus working stocks, thaw frozen samples in 37° C. water bath then centrifuge at 218 g for 15 min at 4° C. Add 1/10 of 10×SPG (Biological Industries 06-3061-01-5A), mix, aliquot supernatant, and quick-freeze in liquid nitrogen then transfer to −80° C. freezer for storage. Virus titer was determined by performing titration test in 96-well plates and calculate approximate virus titer using GFP event/well data.
Compound plates were prepared by dispensing compounds dissolved in DMSO into wells of 384 well coming 3985 polystyrene flat clear bottom optical imaging microplates (202.5 nL/well) using an ECHO acoustic dispenser. Each compound was tested in a 10-point serial 3-fold dilution (typical final concentrations: 40,300 nM-2 nM). […] Continuous culture of VERO cells were maintained in complete culture media (OptiMEM supplemented with 2 mM GlutaMAX™ and 100 U/ml Penicillin-Streptomycin). To set up the assay, trypsinize VERO cells with 0.25% Trypsin-EDTA until cells dislodge, then re-suspend cells with 1 mL FBS. Spin down cells at 300 g for 5 min and wash cells twice in culture media, then count cells using default parameters on ViCell. Cells were then diluted to 100,000 cells/ml (5,000 cells/50 μl) in complete culture media+TrypLE Select (80 μl/ml). Add hMPV-GFP virus to cells at 125,000 pfu/ml (MOI=1.25). Mix by gentle inversion. 10 μl/well of 100% DMSO was dispensed to CellTiter-Glo (CTG) assay Max_E controls wells. Dispense cells at 50 μl/well using Bravo and 50 μl filtered tips into compound plates. Cover plates with MicroClime lids loaded with 7.5 ml of assay media to minimize evaporation. Lightly shake plate for 10 minutes at room temperature then incubate at 37 degrees C. and 5% CO2 for 48 hrs. Following incubation, distinct, GFP-expressing cells are counted using an Acumen imaging system with appropriate settings. A same-well CTG assay is performed by adding 10 μl/well reconstituted CellTiter-Glo reagent (Promega G7573) and reading plates on PerkinElmer Envision according to manufacturer's instructions. Raw data were loaded and analyzed in ActivityBase. Antiviral IC50 and cytotoxicity CC50 values were determined using a 4 parameter logistic fit based on the Levenberg-Marquardt algorithm. Model: 205-4 Parameter Logistic.

[3] = human respiratory syncytial virus, Calu-1, 96 h, read-out: RSV EC50, Calu-1 cells, RSV-A2-GFP MOI=1.2, 96 hrs, GFP-expressing cells counted
[4] = human metapneumovirus, Vero, 48 h
[5] = read-out: RSV EC50, Calu-1 cells, RSV-A2-GFP MOI=1.2, 96 hrs, GFP-expressing cells counted
[6] = VERO cells, hMPV-GFP MOI=1.25, 48 hrs, GFP-expressing cells counted

Compound	EC50 [1, 3] [µM]	EC50 [2, 4] [µM]	EC50 [1, 5] [µM]	EC50 [2, 6] [µM]
Cn1nc(-c2cscn2)cc1C(=O)NCC(C)(O)c1cc(C(C)(C)N)cc(-n2ccc3c(F)cccc32)n1 (single isomer, unassigned) [Example 12-B]	< 0.01	> 0.1	–	–
Cn1nc(-c2cscn2)cc1C(=O)NCC(C)(O)c1cc(C(C)(C)N)cc(-c2ccc(Cl)cc2)n1 (single isomer, unassigned) [Example 13-B]	< 0.01	> 0.1	–	–
Cc1ccc(-c2cc(C(C)(C)N)cc(C(C)(O)CNC(=O)c3cc(-c4cscn4)nn3C)n2)cc1 (single isomer, unassigned) [Example 14-B]	< 0.01	> 0.1	–	–
Cn1nc(-c2cscn2)cc1C(=O)NCC(C)(O)c1cc(C(C)(C)N)cc(-c2ccc(F)c(F)c2)n1 (single isomer, unassigned) [Example 15-B]	< 0.01	> 0.1	–	–
Cn1nc(-c2cscn2)cc1C(=O)NCC(C)(O)c1cc(C(C)(C)N)cc(-c2ccc(F)c(Cl)c2)n1 (single isomer, unassigned) [Example 16-B]	< 0.01	> 0.1	–	–
Cn1nc(-c2cscn2)cc1C(=O)NCC(C)(O)c1cc(C(C)(C)N)cc(-c2ccc(Cl)c(F)c2)n1 (single isomer, unassigned) [Example 17-B]	< 0.01	> 0.1	–	–
Cn1nc(-c2cscn2)cc1C(=O)NCC(C)(O)c1cc(C(C)(C)N)cc(-c2ccc(F)cc2F)n1 (single isomer, unassigned) [Example 18-B]	< 0.01	> 0.1	–	–
Cc1cc(F)ccc1-c1cc(C(C)(C)N)cc(C(C)(O)CNC(=O)c2cc(-c3cscn3)nn2C)n1 (single isomer, unassigned) [Example 19-B]	< 0.01	> 0.1	–	–
Cn1nc(-c2cscn2)cc1C(=O)NCC(C)(O)c1cc(C(C)(C)N)cc(-c2ccc(F)c(F)c2F)n1 (single isomer, unassigned) [Example 20-B]	< 0.01	> 0.1	–	–
CCC(O)(CNC(=O)c1cc(-c2cscn2)nn1C)c1cc(C(C)(C)N)cc(-c2ccc(F)cc2)n1 (single isomer, unassigned) [Example 21-A]	< 0.01	> 0.1	–	–
CCC(O)(CNC(=O)c1cc(-c2cscn2)nn1C)c1cc(C(C)(C)N)cc(-c2ccc(F)cc2)n1 (single isomer, unassigned) [Example 21-B]	–	–	0.01 to 0.1	> 0.1
Cc1nc(-c2ncccn2)sc1C(=O)NCC(O)(c1cc(C(C)(C)N)cc(-c2ccc(F)cc2)n1)C1CC1 (single isomer, unassigned) [Example 22-A]	–	> 0.1	> 0.1	–
Cc1nc(-c2ncccn2)sc1C(=O)NCC(O)(c1cc(C(C)(C)N)cc(-c2ccc(F)cc2)n1)C1CC1 (single isomer, unassigned) [Example 22-B]	–	–	< 0.01	> 0.1
Cn1nc(-c2cscn2)cc1C(=O)NCC(O)(c1cc(C(C)(C)N)cc(-c2ccc(F)cc2)n1)C1CC1 (single isomer, unassigned) [Example 23-B]	< 0.01	> 0.1	–	–
Cn1nc(-c2cscn2)cc1C(=O)NCC(O)(c1cc(C(C)(C)N)cc(-c2ccc(F)cc2)n1)C(F)F (single isomer, unassigned) [Example 24-A]	< 0.01	> 0.1	–	–
Cn1nc(-c2cscn2)cc1C(=O)NCC(O)(c1cc(C(C)(C)N)cc(-c2ccc(F)cc2)n1)C(F)F (single isomer, unassigned) [Example 24-B]	–	–	0.01 to 0.1	> 0.1
Cc1nc(-c2ncccn2)sc1C(=O)NCC(O)(c1cc(C(C)(C)N)cc(-c2ccc(F)cc2)n1)C(F)(F)F (single isomer, unassigned) [Example 25-A]	–	> 0.1	0.01 to 0.1	–
Cc1nc(-c2ncccn2)sc1C(=O)NCC(O)(c1cc(C(C)(C)N)cc(-c2ccc(F)cc2)n1)C(F)(F)F (single isomer, unassigned) [Example 25-B]	–	–	> 0.1	> 0.1
Cn1nc(-c2cscn2)cc1C(=O)NCC(O)(c1cc(C(C)(C)N)cc(-c2ccc(F)cc2)n1)C(F)(F)F (single isomer, unassigned) [Example 26-A]	< 0.01	> 0.1	–	–
Cn1nc(-c2cscn2)cc1C(=O)NCC(C)(O)c1cc(C2(C)CCNC2)cc(-c2ccc(F)cc2)n1 (single isomer, unassigned) [Example 27-A]	–	> 0.1	> 0.1	–
Cn1nc(-c2cscn2)cc1C(=O)NCC(C)(O)c1cc(C2(C)CCNC2)cc(-c2ccc(F)cc2)n1 (single isomer, unassigned) [Example 27-B]	–	–	> 0.1	> 0.1
Cn1nc(-c2cscn2)cc1C(=O)NCC(C)(O)c1cc(C2(C)CCNC2)cc(-c2ccc(F)cc2)n1 (single isomer, unassigned) [Example 27-C]	–	–	< 0.01	> 0.1
Cn1nc(-c2cscn2)cc1C(=O)NCC(C)(O)c1cc(C2(C)CCNC2)cc(-c2ccc(F)cc2)n1 (single isomer, unassigned) [Example 27-D]	–	–	< 0.01	> 0.1
Cn1nc(-c2cscn2)cc1C(=O)NCC(C)(O)c1cc2c(c(-c3ccc(F)cc3)n1)OCC2(C)N (single isomer, unassigned) [Example 28-A]	–	> 0.1	< 0.01	–
Cn1nc(-c2cscn2)cc1C(=O)NCC(C)(O)c1cc2c(c(-c3ccc(F)cc3)n1)OCC2(C)N (single isomer, unassigned) [Example 28-B]	–	–	0.01 to 0.1	> 0.1
Cn1nc(-c2cscn2)cc1C(=O)NCC(C)(O)c1cc2c(c(-c3ccc(F)cc3)n1)OCC2(C)N (single isomer, unassigned) [Example 28-C]	–	–	> 0.1	> 0.1
